Reference: patent US9993480B2, “mTOR/JAK inhibitor combination therapy” (NOVARTIS PHARMA AG, priority 2011, dated 2018)
Where “and” joins values, the source holds several entries; their conditions need not be identical. Identical values can stand only once. Entries after “also recorded” stand apart in the source; their conditions may differ. Like-named read-outs stand apart in the source and are kept apart here. Blank lines part the entries; values can stand above or below the compound they belong to.

Key:
HEL cells [1] = test: Proliferation inhibition assay (WST-1); format: cell-based, human
Description: (§1) The HEL, SET2 and K562 human cell lines were purchased from the German Collection of Microorganisms and Cell Cultures (DSMZ, Braunschweig, Germany). Murine BaF/3 and BaF/3-EPOR cells expressing JAK2 wild-type (wt) or JAK2V617F were donated by R. Skoda (Basel, Switzerland).

K562 cells [2] = test: Proliferation inhibition assay (WST-1); format: cell-based, human
Description: as §1

SET2 cells [3] = test: Proliferation inhibition assay (WST-1); format: cell-based, human
Description: as §1

SET2 cells [4] = test: Apoptosis by Annexin V flow cytometry; format: cell-based, human; conditions: SET2 cells exposed for 48 h
Description: Results are expressed ad percent viable cells compared to control wells containing vehicle (DMSO) only. The fraction of necrotic cells was identified as the double-positive Annexin V/propidium iodide cells.

[5] = system: JAK2, STAT5, and 4EBP1 in SET2 cells; test: Western blot of mTOR and JAK/STAT signaling; format: cell-based, human; conditions: SET2; 24 h; increasing concentrations
Experimental: (§2) Cells were resuspended in RIPA lysis buffer (50 mM pH 7.4 Tris-HCl, 150 mM NaCl, 1% NP-40, 1 mMEDTA) containing a proteinase inhibitor cocktail (Halt Protease Inhibitor Cocktail Kit, PIERCE, Rockford, Ill., US) and subjected to sodium dodecyl sulphate polyacrylamide gel electrophoresis separation and western blotting onto Immunoblot PVDF membrane (BioRad, Hercules, Calif., US), according to standard protocols.
SET2 cells were incubated for 24 h with increasing concentrations of the drugs, and the level of total and phosphorylated JAK2, STAT5, and 4EBP1 was analyzed by western blot. Tubulin was used for loading normalization.

[6] = system: BaF/3 cells expressing JAK2 wild-type; test: Proliferation inhibition assay (WST-1); format: cell-based, murine; conditions: Mus musculus, BaF3; BaF/3 WT; mIL-3 in culture medium
Description: as §1

[7] = system: BaF/3 cells expressing JAK2V617F; test: Proliferation inhibition assay (WST-1); format: cell-based, murine; conditions: Mus musculus, BaF3; BaF/3 V617F, absence of IL-3
Description: as §1

[8] = system: BaF/3-EPOR cells expressing JAK2 wild-type; test: Proliferation inhibition assay (WST-1); format: cell-based, murine; conditions: Mus musculus; BaF/3-EPOR WT; EPO in culture medium
Description: as §1

[9] = system: BaF/3-EPOR cells expressing JAK2V617F; test: Proliferation inhibition assay (WST-1); format: cell-based, murine
Description: as §1

UKE-1 cells = test: Clonogenic assay; format: cell-based; conditions: compared with K562
[10] = system: Peripheral Blood mononuclear cells from PV patients; test: EEC colony formation assay; format: cell-based; conditions: Homo sapiens
[11] = system: CD34+ cells from MPN patients; test: Clonogenic assay with JAK2V617F single-colony genotyping; format: cell-based, human; conditions: for % decrease V617F: RAD001 50 nM vs without
Experimental: Samples of peripheral blood (PB) or bone marrow (BM) were obtained from patients diagnosed with PV or PMF (2008 WHO criteria) under a protocol approved by Institutional Review Board of Azienda Ospedaliera-Universitaria Careggi and after obtaining an informed consent. Healthy donors of hematopoietic stem cells provided informed consent to donate excess CD34^+ cells. Research was carried out according to the principles of Declaration of Helsinki. CD34^+ cells were immunomagnetically selected as described. The JAK2V617F mutational status was determined by a quantitative real-time PCR assay in granulocytes.
BM mononuclear cells from MPN patients or control subjects were plated at 1×10^5/mL in methylcellulose (MethoCult; StemCell Technologies, Vancouver, Canada) supplemented with SCF 50 ng/mL, IL-3 10 ng/mL, IL-6 10 ng/mL, GM-CSF 10 ng/mL, G-CSF 10 ng/mL and EPO 3 U/mL for the growth of BFU-E and CFU-GM. EEC assay was performed by plating 2.5×10^5/mL PB mononuclear cells from PV patients in methylcellulose containing leukocyte-conditioned medium without EPO (StemCell Technol., cat. No. #04531). For the growth of CFU-Mk, 5×10^4/mL CD34^+ cells were plated in a 24-well plate in Megacult Collagen and medium with lipids (StemCell Technol.) supplemented with Thrombopoietin 50 ng/mL, IL-3 10 ng/mL, IL-6 10 ng/mL. Colonies were enumerated on day 14 according to standard criteria.
For JAK2V617F single-colony genotyping an allele-specific PCR assay was used. Well-separated colonies (at least 40 colonies per point) were individually plucked off the semisolid medium in 5 μL DNase/RNase-free water, lysed at 95° C. for 5 minutes, and subjected to PCR amplification and gel electrophoresis.

SET2 cells [12] = test: Cell cycle distribution analysis by flow cytometry; format: cell-based, human; conditions: at IC50 concentration
HEL cells [13] = test: Cell cycle distribution analysis by flow cytometry; format: cell-based, human; conditions: at IC50 concentration
[14] = system: 4E-BP1 and STAT5 in Ba/F3 and Ba/F3-EPOR cells; test: Western blot of 4E-BP1 and STAT5 phosphorylation; format: cell-based, murine
Experimental: as §2
To better characterize the correlation between JAK2V617F mutation and mTOR activation, as well as the consequences of mTOR inhibition on STAT5 phosphorylation, BA/F3 and Ba/F3-EPOR cells were used. First, it was observed that 4E-BP1 was minimally phosphorylated in JAK2 wt Ba/F3 and Ba/F3-EPOR cells deprived of cytokines, while it was hyper-phosphorylated in V617F cells, supporting previous data on Akt constitutive activation in JAK2V617F-mutated cells. […] STAT5 phosphorylation was greater in V617F cells compared to IL-3- or EPO-deprived JAK2 wt Ba/F3 or Ba/F3-EPOR cells, and it did increase substantially after cytokine exposure.

K562 cells [15] = test: Clonogenic assay in agar; conditions: Homo sapiens, K562, 168 h, read-out: IC50, clonogenic assay
HEL cells [16] = test: Clonogenic assay in agar; conditions: Homo sapiens, 168 h, read-out: IC50, clonogenic assay
SET2 cells [17] = test: Clonogenic assay in agar
Ba/F3 JAK2 V617F cells = test: Clonogenic assay in agar; conditions: Mus musculus, BaF3, 168 h, read-out: IC50, clonogenic assay
[18] = system: Ba/F3 epoR JAK2 wild-type cells; test: Clonogenic assay in agar; conditions: Mus musculus, BaF3, 168 h, read-out: IC50, clonogenic assay
[19] = system: Ba/F3 epoR JAK2 V617F cells; test: Clonogenic assay in agar; conditions: Mus musculus

- IC50 (K562 cells [2]): 4910 µM
Structure (SMILES): NC(=O)NO [HuOH, hydroxyurea]
- IC50 (HEL cells [1]): 410 µM
- IC50 (SET2 cells [3]; SET2, read-out: IC50, proliferation inhibition): 330 µM
- cell apoptosis (Annexin V-positive cells) (SET2 cells [4]): induced dose-dependent cell apoptosis
- phosphorylation of 4E-BP1 [5]: did not affect
- phosphorylation of STAT5 [5]: did not affect

- IC50 (K562 cells [2]; Homo sapiens): 16 µM
- IC50 ([10]; PBMC, read-out: IC50 of the mTOR inhibitor in drug combination with Cmp A): 0.0019 µM
- IC50 ([10]; PBMC from PV patients, individual drug, read-out: IC50, clonogenic potential (EEC)): 0.015 ± 0.01 µM
- IC50 (K562 cells [15]): 10 µM
- IC50 (HEL cells [16]): 0.085 ± 0.03 µM
- IC50 (SET2 cells [17]; Homo sapiens, SET-2, read-out: IC50 of the mTOR inhibitor in drug combination with Cmp A, SET2, clonogenic agar assay, median of at least 3 experiments): 0.007 µM
- IC50 (SET2 cells [17]; read-out: IC50, clonogenic assay, SET2, colonies day 7, individual drug): 0.13 µM and 0.044 µM
- IC50 (Ba/F3 JAK2 V617F cells): 0.006 ± 0.002 µM
- IC50 [18]: 0.022 ± 0.01 µM
- IC50 ([19]; BaF3, 168 h, read-out: IC50, clonogenic assay): 0.004 ± 0.002 µM
- IC50 ([19]; BaF3, read-out: IC50 of the mTOR inhibitor in drug combination with Cmp A): 0.0011 µM
Structure (SMILES): CO[C@H]1C[C@@H]2CC[C@@H](C)[C@@](O)(O2)C(=O)C(=O)N2CCCC[C@H]2C(=O)O[C@H]([C@H](C)C[C@@H]2CC[C@@H](OCCO)[C@H](OC)C2)CC(=O)[C@H](C)/C=C(\C)[C@@H](O)[C@@H](OC)C(=O)[C@H](C)C[C@H](C)/C=C/C=C/C=C/1C [RAD001, Everolimus]
- IC50 (HEL cells [1]; Homo sapiens): 14 µM
- IC50 (SET2 cells [3]; Homo sapiens, SET-2, read-out: IC50 of the mTOR inhibitor in drug combination with Cmp A): 0.0031 µM
- IC50 (SET2 cells [3]; Homo sapiens, SET-2, SET2, individual drug, read-out: IC50, proliferation inhibition): 17 µM
- IC50 [6]: 2.6 µM
- IC50 [7]: 0.01 ± 0.004 µM
- IC50 [8]: > 10 µM
- IC50 ([9]; BaF/3-EPOR V617F + EPO, read-out: IC50, proliferation inhibition): 1.23 µM
- IC50 ([9]; BaF/3-EPOR V617F, absence of EPO, individual drug, read-out: IC50, proliferation inhibition): 0.651 ± 0.05 µM
- IC50 ([9]; Mus musculus, BaF/3-EPOR V617F + EPO, read-out: IC50, proliferation inhibition): 1.21 µM
- IC50 ([9]; Mus musculus, JAK2V617F Ba/F3-EPOR, proliferation, median of at least 3 experiments, read-out: IC50 of the mTOR inhibitor in drug combination with Cmp A): 0.363 µM
- clonogenic potential (UKE-1 cells): impaired the clonogenic potential
- JAK2 genotype V617F colonies (%) ([11]; Pat. # 1, RAD001 50 nM): 6%
- JAK2 genotype Wild-type colonies (%) ([11]; Pat. # 1, RAD001 50 nM): 94%
- % decrease V617F ([11]; Pat. # 1): 70%
- JAK2 genotype V617F colonies (%) ([11]; Pat. # 2, RAD001 50 nM): 40%
- JAK2 genotype Wild-type colonies (%) ([11]; Pat. # 2, RAD001 50 nM): 60%
- % decrease V617F ([11]; Pat. # 2): 15%
- JAK2 genotype V617F colonies (%) ([11]; Pat. # 3, RAD001 50 nM): 57%
- JAK2 genotype Wild-type colonies (%) ([11]; Pat. # 3, RAD001 50 nM): 43%
- % decrease V617F ([11]; Pat. # 3): 21%
- JAK2 genotype V617F colonies (%) ([11]; Pat. # 4, RAD001 50 nM): 40%
- JAK2 genotype Wild-type colonies (%) ([11]; Pat. # 4, RAD001 50 nM): 58%
- % decrease V617F ([11]; Pat. # 4): 17%
- JAK2 genotype V617F colonies (%) ([11]; Pat. # 5, RAD001 50 nM): 9%
- JAK2 genotype Wild-type colonies (%) ([11]; Pat. # 5, RAD001 50 nM): 91%
- % decrease V617F ([11]; Pat. # 5): 72%
- % decrease V617F, Mean ± SD ([11]; mean of 5 patients, RAD001 50 nM): 39% and 39 ± 29%
- cell apoptosis (Annexin V-positive cells) (SET2 cells [4]): largely ineffective in inducing cell death; also recorded: did not induce cell death
- cell cycle effect (SET2 cells [12]): cell cycle arrest of SET2 and HEL cells in the G0/G1 phase
- cell cycle effect (HEL cells [13]): cell cycle arrest of SET2 and HEL cells in the G0/G1 phase
- phosphorylated JAK2 [5]: unaffected
- phosphorylation of 4E-BP1 [5]: dose-dependently reduced phosphorylation; also recorded: inhibited the phosphorylation
- phosphorylation of STAT5 [5]: dose-dependently reduced phosphorylation; also recorded: appreciable decrease of STAT5 phosphorylation
- total JAK2 [5]: unaffected
- STAT5 phosphorylation ([14]; evident at 60 min, up to 24 h, not shown): significantly downregulated
- 4E-BP1 phosphorylation ([14]; persisted up to at least 24 h, data not shown): marked inhibition
